# Reference: patent US10105372B2, “Methods of treating obesity using antioxidant inflammation modulators” (REATA PHARMACEUTICALS, INC., priority 2010, dated 2018)
# Entries after “also recorded” stand apart in the source; their conditions may differ.
# Tests used:
# [1] = 12-month toxicity study, whole blood exposure; assay type: in vivo, cynomolgus monkeys; settings: Days 1 and 28; 30, 100 and 300 mg/kg/day oral gavage
# Protocol: (§1) All the animals were healthy and within normal weights for their age at the start of the study. The dose levels were 0, 30/5, 100/30, and 300 mg/kg/day and administered at a dose volume of 3 mL per dose. The control group received the vehicle in the same manner as the treated groups. Just prior to administration, the test article for each animal was added to the syringe containing the vehicle for each animal and vortexed until thoroughly mixed to achieved the desired concentrations of 30, 100, and 300 mg/mL through Day 42 (Week 6). During administration, the syringe containing the test article preparation for each animal was pushed through the gavage tube. The 1 mL vehicle rinse was then added to the dosing syringe and administered. After administration of both volumes, a 5 mL flush of the vehicle was used to rinse the gavage tube and ensure that the entire amount of the test article was administered to the animal. […] Therefore, dose levels were adjusted so that different blood exposures could be examined. During Week 7 dosing for all animals was stopped for four days (Days 43 to 46). The initial dose levels of 30 and 100 mg/kg/day were reduced to 5 and 30 mg/kg/day, respectively, and dosing was resumed on Day 47 through Day 353. Individual doses were based on the most recent body weights.
# [2] = Phase 2b/3 trial, weight over 52 weeks; assay type: in vivo, human
# Protocol: Weight measurements were included in the study as a basic clinical parameter. […] Screening estimated GFR was calculated as the mean of two estimated GFR results (differing no more than 25%) collected at least 5 days apart within a 3-week period. […] Exclusion criteria included type 1 diabetes, non-diabetic kidney disease, hemoglobin A1c>10%, QTc […] interval >450 milliseconds, evidence of hepatic dysfunction, and recent cardiovascular disease. […] Study drug was taken orally once daily in the morning one hour prior to food intake. Dose titration occurred as follows: (1) placebo; (2) 25 mg; (3) 25 mg, increased to 75 mg after 4 weeks; and (4) 25 mg, increased to 75 mg after 4 weeks, further increased to 150 mg after an additional 4 weeks. Randomization was stratified by CKD stage (3b versus 4), urinary albumin to creatinine ratio (ACR; ≤ versus >300 mg/g), and glucose control (hemoglobin A1c< versus ≥7%). An independent Data Safety Monitoring Board monitored patient safety. […] The double-blinded structure of the study was maintained throughout the 52-week period. […] Treatment was discontinued in all groups at week 52 (including the placebo group), and final clinical and laboratory measurements were taken at week 56.
# [3] = 12-month toxicity study, body weight; assay type: in vivo, cynomolgus monkeys; settings: for % gain / kg gained: pretest to Week 50
# Protocol: as §1
# [4] = 75 mg, Week 56 (treatment discontinued at week 52)
# [5] = by week 52, patients treated with bardoxolone methyl
smiles,measurement,setting,value
COC(=O)[C@]12CCC(C)(C)C[C@H]1[C@H]1C(=O)C=C3[C@@]4(C)C=C(C#N)C(=O)C(C)(C)[C@@H]4CC[C@@]3(C)[C@]1(C)CC2 [bardoxolone methyl],exposure in whole blood samples,[1],no significant differences in exposure across the three dose levels
same,"Change in weight from baseline to Week 52: Decrease >5 kg, patients","[2]; 25 mg, N = 48",35 (73) n (%)
same,"Change in weight from baseline to Week 52: Decrease >10 kg, patients","[2]; 25 mg, N = 48",16 (33) n (%)
same,"Change in weight from baseline to Week 52: Decrease >15 kg, patients","[2]; 25 mg, N = 48",9 (19) n (%)
same,"Change in weight from baseline to Week 52: Decrease within 5 kg, patients","[2]; 25 mg, N = 48",8 (17) n (%)
same,"Change in weight from baseline to Week 52: Increase >5 kg, patients","[2]; 25 mg, N = 48",0 n (%)
same,"Change in weight from baseline to Week 52: Increase within 5 kg, patients","[2]; 25 mg, N = 48",5 (10) n (%)
same,"Change from baseline weight, Mean","[2]; 25 mg, Week 4",-1.4 kg
same,"Change from baseline weight, Mean","[2]; 25 mg, Week 8",-2.7 kg
same,"Change from baseline weight, Mean","[2]; 25 mg, Week 12",-3.9 kg
same,"Change from baseline weight, Mean","[2]; 25 mg, Week 16",-4.3 kg
same,"Change from baseline weight, Mean","[2]; 25 mg, Week 20",-5.0 kg
same,"Change from baseline weight, Mean","[2]; 25 mg, Week 24",-5.9 kg
same,"Change from baseline weight, Mean","[2]; 25 mg, Week 28",-6.3 kg
same,"Change from baseline weight, Mean","[2]; 25 mg, Week 32",-6.7 kg
same,"Change from baseline weight, Mean","[2]; 25 mg, Week 36",-7.4 kg
same,"Change from baseline weight, Mean","[2]; 25 mg, Week 40",-7.9 kg
same,"Change from baseline weight, Mean","[2]; 25 mg, Week 44",-8.2 kg
same,"Change from baseline weight, Mean","[2]; 25 mg, Week 48",-8.8 kg
same,"Change from baseline weight, Mean","[2]; 25 mg, Week 52",-9.3 kg
same,"Change from baseline weight, Mean","[2]; 25 mg, Week 56 (treatment discontinued at week 52)",-7.7 kg
same,"Change in weight from baseline to Week 52: Decrease >5 kg, patients","[2]; 75 mg, N = 48",32 (67) n (%)
same,"Change in weight from baseline to Week 52: Decrease >10 kg, patients","[2]; 75 mg, N = 48",14 (29) n (%)
same,"Change in weight from baseline to Week 52: Decrease >15 kg, patients","[2]; 75 mg, N = 48",4 (8) n (%)
same,"Change in weight from baseline to Week 52: Decrease within 5 kg, patients","[2]; 75 mg, N = 48",12 (25) n (%)
same,"Change in weight from baseline to Week 52: Increase >5 kg, patients","[2]; 75 mg, N = 48",0 n (%)
same,"Change in weight from baseline to Week 52: Increase within 5 kg, patients","[2]; 75 mg, N = 48",4 (8) n (%)
same,"Change from baseline weight, Mean","[2]; 75 mg, Week 4",-1.4 kg
same,"Change from baseline weight, Mean","[2]; 75 mg, Week 8",-2.6 kg
same,"Change from baseline weight, Mean","[2]; 75 mg, Week 12",-3.4 kg
same,"Change from baseline weight, Mean","[2]; 75 mg, Week 16",-4.1 kg
same,"Weight, Mean","[2]; 75 mg, Week 16",91.7 kg
same,"Change from baseline weight, Mean","[2]; 75 mg, Week 20",-4.4 kg
same,"Weight, Mean","[2]; 75 mg, Week 20",92.0 kg
same,"Change from baseline weight, Mean","[2]; 75 mg, Week 24",-4.7 kg
same,"Weight, Mean","[2]; 75 mg, Week 24",91.7 kg
same,"Change from baseline weight, Mean","[2]; 75 mg, Week 28",-5.1 kg
same,"Weight, Mean","[2]; 75 mg, Week 28",91.8 kg
same,"Change from baseline weight, Mean","[2]; 75 mg, Week 32",-6.2 kg
same,"Weight, Mean","[2]; 75 mg, Week 32",91.6 kg
same,"Change from baseline weight, Mean","[2]; 75 mg, Week 36",-6.1 kg
same,"Weight, Mean","[2]; 75 mg, Week 36",91.0 kg
same,"Change from baseline weight, Mean","[2]; 75 mg, Week 40",-6.5 kg
same,"Weight, Mean","[2]; 75 mg, Week 40",90.6 kg
same,"Change from baseline weight, Mean","[2]; 75 mg, Week 44",-6.9 kg
same,"Weight, Mean","[2]; 75 mg, Week 44",90.8 kg
same,"Change from baseline weight, Mean","[2]; 75 mg, Week 48",-7.4 kg
same,"Weight, Mean","[2]; 75 mg, Week 48",90.4 kg
same,"Change from baseline weight, Mean","[2]; 75 mg, Week 52",-7.7 kg
same,"Weight, Mean","[2]; 75 mg, Week 52",90.0 kg
same,"Change from baseline weight, Mean",[2]; [4],-7.6 kg
same,"Weight, Mean",[2]; [4],90.7 kg
same,"Change in weight from baseline to Week 52: Decrease >5 kg, patients","[2]; 150 mg, N = 45",34 (76) n (%)
same,"Change in weight from baseline to Week 52: Decrease >10 kg, patients","[2]; 150 mg, N = 45",22 (49) n (%)
same,"Change in weight from baseline to Week 52: Decrease >15 kg, patients","[2]; 150 mg, N = 45",12 (27) n (%)
same,"Change in weight from baseline to Week 52: Decrease within 5 kg, patients","[2]; 150 mg, N = 45",8 (18) n (%)
same,"Change in weight from baseline to Week 52: Increase >5 kg, patients","[2]; 150 mg, N = 45",1 (2) n (%)
same,"Change in weight from baseline to Week 52: Increase within 5 kg, patients","[2]; 150 mg, N = 45",2 (4) n (%)
same,"Change from baseline weight, Mean","[2]; 150 mg, Week 4",-1.3 kg
same,"Change from baseline weight, Mean","[2]; 150 mg, Week 8",-2.1 kg
same,"Change from baseline weight, Mean","[2]; 150 mg, Week 12",-3.3 kg
same,"Change from baseline weight, Mean","[2]; 150 mg, Week 16",-3.9 kg
same,"Change from baseline weight, Mean","[2]; 150 mg, Week 20",-5.0 kg
same,"Change from baseline weight, Mean","[2]; 150 mg, Week 24",-5.8 kg
same,"Change from baseline weight, Mean","[2]; 150 mg, Week 28",-6.7 kg
same,"Change from baseline weight, Mean","[2]; 150 mg, Week 32",-7.2 kg
same,"Change from baseline weight, Mean","[2]; 150 mg, Week 36",-8.1 kg
same,"Change from baseline weight, Mean","[2]; 150 mg, Week 40",-8.7 kg
same,"Change from baseline weight, Mean","[2]; 150 mg, Week 44",-9.2 kg
same,"Change from baseline weight, Mean","[2]; 150 mg, Week 48",-10 kg
same,"Change from baseline weight, Mean","[2]; 150 mg, Week 52",-10 kg
same,"Change from baseline weight, Mean","[2]; 150 mg, Week 56 (treatment discontinued at week 52)",-9.6 kg
same,fraction of patients who had lost more than 5 kg,[2]; [5],at least two thirds
same,fraction of patients who had lost more than 10 kg,[2]; [5],Approximately one third
same,Week 26 Weight,"[3]; Females, 300 mg/kg/day",2.552 kg
same,Week 50 Weight,"[3]; Females, 300 mg/kg/day",2.68 kg
same,% gain,"[3]; Females, 300 mg/kg/day",28.60%
same,kg gained,"[3]; Females, 300 mg/kg/day",0.596 kg
same,Week 26 Weight,"[3]; Females, 30/5 mg/kg/day",2.454 kg
same,Week 50 Weight,"[3]; Females, 30/5 mg/kg/day",2.608 kg
same,% gain,"[3]; Females, 30/5 mg/kg/day",26.05%
same,kg gained,"[3]; Females, 30/5 mg/kg/day",0.539 kg
same,Week 26 Weight,"[3]; Females, 100/30 mg/kg/day",2.293 kg
same,Week 50 Weight,"[3]; Females, 100/30 mg/kg/day",2.68 kg
same,% gain,"[3]; Females, 100/30 mg/kg/day",30.22%
same,kg gained,"[3]; Females, 100/30 mg/kg/day",0.622 kg
same,Week 26 Weight,"[3]; Males, 300 mg/kg/day",2.52 kg
same,Week 50 Weight,"[3]; Males, 300 mg/kg/day",2.808 kg
same,% gain,"[3]; Males, 300 mg/kg/day",31.15%
same,kg gained,"[3]; Males, 300 mg/kg/day",0.667 kg
same,Week 50 Weight,"[3]; Males, 30/5 mg/kg/day",2.975 kg
same,Week 26 Weight,"[3]; Males, 30/5 mg/kg/day oral gavage",2.567 kg
same,% gain,"[3]; Males, 30/5 mg/kg/day",39.80%
same,kg gained,"[3]; Males, 30/5 mg/kg/day",0.847 kg
same,Week 26 Weight,"[3]; Males, 100/30 mg/kg/day",2.464 kg
same,Week 50 Weight,"[3]; Males, 100/30 mg/kg/day",2.725 kg
same,% gain,"[3]; Males, 100/30 mg/kg/day",26.63%
same,kg gained,"[3]; Males, 100/30 mg/kg/day",0.573 kg
same,effect on body weight,"[3]; healthy monkeys with normal body weights, all treated groups, 26 and 50 weeks",gained significant amounts of weight; also recorded: did not induce weight loss
